Experimental data reported in the supplement of paper PMC11781733.
Counter-ions that a name gives are not always drawn.

Key:
Conditions in all cases: exposure time: 15 min to 3 h acute
Dugesia japonica [1] = assay: crawl-out incidence (% planarians); higher = higher incidence or increase relative to vehicle control
Method: (§1)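 Adult asexual Dugesia japonica planarians (1 per well, 48-well plate, n=24 over technical triplicates) were exposed acutely (15 min to 3 h) to each compound (0.5% DMSO or water vehicle) and screened on a robotic platform for crawl-out, stickiness, body shape, phototaxis, noxious-heat scrunching and locomotion endpoints. Binary endpoints are incidence rate x100. Continuous endpoints are the median response normalised to the plate vehicle median, as % change or difference. Negative incidences after vehicle subtraction were set to 0.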

Dugesia japonica [2] = assay: speed in dark vs vehicle (% change vs vehicle); higher = higher incidence or increase relative to vehicle control
Method: as §1, with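 “x100 normalised to in-plate vehicle controls.” for “x100.”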

Dugesia japonica [3] = assay: C-shape incidence (% planarians (vehicle-normalised)); higher = higher incidence or increase relative to vehicle control
Procedure, shortened: (§2)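 D. japonica planarians (fasted 5–7 days), one per well in 200 μL in sealed 48-well plates, were screened within 15 minutes–3 hours of exposure to at least 5 concentrations. Body shapes (contraction, C-shape, corkscrew, hyperkinesis) were scored manually and blind by a researcher; worms that crawled out were excluded. The value is the incidence of the given shape, or of any abnormal shape, ×100, normalised to in-plate vehicle controls, with negatives set to 0.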

Dugesia japonica [4] = assay: corkscrew incidence (% planarians (vehicle-normalised)); higher = higher incidence or increase relative to vehicle control
Procedure, shortened: as §2

Dugesia japonica [5] = assay: stickiness incidence (% planarians (vehicle-normalised)); higher = higher incidence or increase relative to vehicle control
Procedure, shortened: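 Fasted Dugesia japonica planarians, one per well of a sealed 48-well plate in 200 μL solution, were tested 15 min–3 h after exposure to half- or quarter-log concentration series. The vehicle was 0.5% DMSO or water. Stickiness was scored as a binary endpoint in the Stickiness assay, pooling technical triplicates (n = 24). Incidence was normalised to in-plate vehicle incidence, with negatives set to 0, and multiplied by 100. Crawled-out worms were excluded.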

Dugesia japonica [6] = assay: hyperkinesis incidence (% planarians (vehicle-normalised)); higher = higher incidence or increase relative to vehicle control
Procedure, shortened: as §2

Dugesia japonica [7] = assay: speed first 30 s blue light vs vehicle (% change vs vehicle); higher = higher incidence or increase relative to vehicle control
Procedure, shortened: (§3)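 Crawling speed is given as the median percent change after each worm was normalised to its plate's vehicle median, leaving out worms that crawled out. Fasted, intact Dugesia japonica were placed one per well in 200 μL in 48-well plates and tracked automatically in darkness or during blue-light periods, 15 min to 3 h after exposure in 0.5% DMSO or water vehicle. Runs used eight worms per concentration per plate in technical triplicate (n = 24).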

Dugesia japonica [8] = assay: speed second 30 s blue light vs vehicle (% change vs vehicle); higher = higher incidence or increase relative to vehicle control
Procedure, shortened: as §3

Dugesia japonica [9] = assay: pharynx extrusion incidence (% planarians (vehicle-normalised)); higher = higher incidence or increase relative to vehicle control
Procedure, shortened: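 Intact, fasted Dugesia japonica were placed one per well in 48-well plates with 200 μL each and scored 15 min to 3 h after exposure in either water or 0.5% DMSO vehicle. Pharynx extrusion was judged manually and blind as a body-shape category. Each concentration used eight worms per plate in technical triplicate (n = 24). Incidence was normalised to vehicle controls on the same plate, negative values were set to 0, and worms that crawled out were excluded.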

Dugesia japonica [10] = assay: loss of phototaxis incidence (% planarians (vehicle-normalised)); higher = higher incidence or increase relative to vehicle control
Procedure, shortened: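 Intact, fasted Dugesia japonica were tested 15 min to 3 h after exposure in 0.5% DMSO or water vehicle, one per well of a 48-well plate in 200 μL. Automated object tracking was used to score each worm for loss of phototaxis as a yes/no result. With eight worms per concentration per plate in technical triplicate (n = 24), worms that crawled out were excluded. The incidence rate ×100 was normalised to in-plate vehicle controls and negatives were set to 0.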

Dugesia japonica [11] = assay: total locomotor bursts minus vehicle (bursts difference vs vehicle); higher = higher incidence or increase relative to vehicle control
Procedure, shortened: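 Fasted Dugesia japonica planarians were placed one per well in a sealed 48-well plate with 200 μL solution and exposed to half- or quarter-log concentration series, with 0.5% DMSO or water as vehicle. Testing took place 15 min–3 h after exposure, with technical triplicates totalling n = 24. Total locomotor bursts, an unstimulated behaviour, were scored by image-based object tracking, and the plate vehicle-control median was subtracted from each planarian's value without scaling. The reported value is the median normalised response, excluding worms that crawled out.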

Dugesia japonica [12] = assay: noxious heat displacement strength vs vehicle (% change vs vehicle); higher = higher incidence or increase relative to vehicle control
Procedure, shortened: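 In the scrunching assay, displacement strength under noxious heat was tracked automatically in intact, fasted Dugesia japonica and expressed as the median percent change from the plate's vehicle median. Testing took place 15 min to 3 h after exposure in 0.5% DMSO or water vehicle, with one worm per well of a 48-well plate in 200 μL. Eight worms per concentration per plate were tested in technical triplicate (n = 24), and any that crawled out were left out.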

Dugesia japonica [13] = assay: contracted body shape incidence (% planarians (vehicle-normalised)); higher = higher incidence or increase relative to vehicle control
Procedure, shortened: as §2

Dugesia japonica [14] = assay: anxiety (time in outer well region) vs vehicle (% change vs vehicle); higher = higher incidence or increase relative to vehicle control
Procedure, shortened: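 Each planarian's time in the outer portion of its well was scored, worms that crawled out were dropped, and the median normalized response is reported. Fasted 5–7 days, D. japonica worms were tested singly in 200 μL in sealed 48-well plates at at least 5 concentrations, n = 24 per concentration, within 15 minutes–3 hours. Each response was normalized by dividing by, or subtracting, the plate vehicle median and multiplying by 100.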

Dugesia japonica [15] = assay: any abnormal body shape incidence (% planarians (vehicle-normalised)); higher = higher incidence or increase relative to vehicle control
Procedure, shortened: as §2

Dugesia japonica [16] = assay: resting fraction in dark vs vehicle (difference in fraction x100 vs vehicle); higher = higher incidence or increase relative to vehicle control
Procedure, shortened: (§4)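 Resting fraction in the dark or under blue light is reported as a median from automated tracking of intact, fasted Dugesia japonica. Worms were held one per well of a 48-well plate in 200 μL and tested 15 min to 3 h after exposure in 0.5% DMSO or water vehicle. Each worm's value was its difference from the plate's vehicle median multiplied by 100, and worms that crawled out were excluded.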

Dugesia japonica [17] = assay: loss of heat-induced scrunching incidence (% planarians (vehicle-normalised)); higher = higher incidence or increase relative to vehicle control
Procedure, shortened: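 The incidence of worms lacking a scrunching response to a noxious heat stimulus, normalised to vehicle controls within each plate, is the value listed. It appears ×100 with negatives set to 0. Single D. japonica planarians in 200 μL per well of 48-well plates were exposed to at least 5 concentrations (n = 24 per concentration) and tested within 15 minutes–3 hours, excluding worms that crawled out.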

Dugesia japonica [18] = assay: resting fraction in blue light vs vehicle (difference in fraction x100 vs vehicle); higher = higher incidence or increase relative to vehicle control
Procedure, shortened: as §4

Dugesia japonica [19] = assay: crawl-out incidence (% planarians); higher = higher incidence or increase relative to vehicle control; remark: listed apart in the source
Dugesia japonica [20] = assay: speed in dark vs vehicle (% change vs vehicle); higher = higher incidence or increase relative to vehicle control; remark: listed apart in the source
Procedure, shortened: as §3

SMILES | crawl-out incidence (Dugesia japonica [1]) | speed in dark (Dugesia japonica [2]) | C-shape incidence (Dugesia japonica [3]) | corkscrew incidence (Dugesia japonica [4]) | stickiness incidence (Dugesia japonica [5]) | hyperkinesis incidence (Dugesia japonica [6]) | speed first 30 s blue light (Dugesia japonica [7]) | speed second 30 s blue light (Dugesia japonica [8]) | pharynx extrusion incidence (Dugesia japonica [9]) | loss of phototaxis incidence (Dugesia japonica [10]) | total locomotor bursts minus vehicle (Dugesia japonica [11]) | noxious heat displacement strength (Dugesia japonica [12]) | contracted body shape incidence (Dugesia japonica [13]) | anxiety (Dugesia japonica [14]) | any abnormal body shape incidence (Dugesia japonica [15]) | resting fraction in dark (Dugesia japonica [16]) | loss of heat-induced scrunching incidence (Dugesia japonica [17]) | resting fraction in blue light (Dugesia japonica [18]) | crawl-out incidence (Dugesia japonica [19]) | speed in dark (Dugesia japonica [20])
Cc1cc2c(s1)Nc1ccccc1N=C2N1CCN(C)CC1 [olanzapine] (3.16 µM) | 4.17 | -69 | 8.33 | 0 | ≤ 0 | 54.2 | -79.2 | -75.2 | 0 | ≤ 0 | 41.2 | -37.1 | 0 | -4.66 | 58.3 | 51.2 | 45.8 | 34 |  | 
CN1CCN(C2=Nc3cc(Cl)ccc3Nc3ccccc32)CC1 [clozapine] (1 µM) | 0 | -73.5 | 0 | 0 | 4.17 | 8.33 | -82 | -79.8 | 0 | 8.33 | 38.8 | -43.5 | 4.17 | -1.98 | 8.33 | 55.3 | 4.17 | 36.4 |  | 
CN1CC(=O)N=C1NC(=O)Nc1cccc(Cl)c1 [fenobam] (56.2 µM) | 0 | -1.71 | 0 | 0 | ≤ 0 | 0 | -6.17 | -8.21 | 0 | 12.5 | -0.5 | -21.7 | 0 | 9.05 | 0 | -0.17 | ≤ 0 | 0 |  | 
O=C(CCCN1CCC(O)(c2ccc(Cl)cc2)CC1)c1ccc(F)cc1 [haloperidol] (1 µM) | 4.17 | -17.7 | 0 | 0 | ≤ 0 | 0 | -26.1 | -36.1 | 0 | 21.7 | 0 | -20.5 | 4.35 | 1.11 | 4.35 | 32.1 | ≤ 0 | 10.1 |  | 
CN(C)CCCC1(c2ccc(F)cc2)OCc2cc(C#N)ccc21 (configuration not stated) [citalopram hydrobromide] (10 µM) | 0 | -7.94 | 0 | 0 | 12.5 | 8.33 | 9.22 | -12.8 | 0 | 16.7 | 1.75 | -8.3 | 0 | 5.9 | 12.5 | 1.41 | 25 | 0.82 |  | 
O=C(CCCN1CC=C(n2c(=O)[nH]c3ccccc32)CC1)c1ccc(F)cc1 [droperidol] (1 µM) | 0 | -60.7 | 0 | 4.17 | ≤ 0 | 12.5 | -63.6 | -69.5 | 0 | 16.7 | 11.8 | -54.4 | 0 | 11.5 | 16.7 | 3.77 | 58.3 | 9.81 |  | 
CN[C@H]1CC[C@@H](c2ccc(Cl)c(Cl)c2)c2ccccc21 [sertraline hydrochloride] (1 µM) | 0 | 0.19 | 0 | 0 | 8.33 | 12.5 | -11.7 | -15.7 | 0 | ≤ 0 | -2.5 | -12.6 | 0 | 5.35 | 12.5 | 5.44 | 4.17 | 0 |  | 
CNCCC(Oc1ccc(C(F)(F)F)cc1)c1ccccc1 (configuration not stated) [fluoxetine hydrochloride] (1 µM) | 0 | 33.6 | 0 | 0 | 4.17 | 0 | 33.5 | 14.9 | 0 | ≤ 0 | -7 | 12 | 0 | 6.17 | 0 | -9.67 | 8.33 | -1.64 |  | 
CN1C(=O)CN=C(c2ccccc2)c2cc(Cl)ccc21 [diazepam] (1 µM) | 0 | 23.3 | 0 | 0 | 4.17 | 0 | 30.1 | -4.48 | 0 | 8.33 | -4.5 | -18.8 | 0 | 2.23 | 0 | -6.08 | 12.5 | -0.17 |  | 
CN(C)CCC[C@@]1(c2ccc(F)cc2)OCc2cc(C#N)ccc21 [escitalopram] (10 µM) | 0 | 22.6 | 0 | 0 | 16.7 | 0 | 23.1 | 16 | 0 | ≤ 0 | 0.5 | -2.51 | 0 | 1.04 | 0 | -4.34 | 8.33 | 0 |  | 
Cc1ncc2n1-c1ccc(Cl)cc1C(c1ccccc1F)=NC2 [midazolam] (10 µM) | 0 | -4.66 | 0 | 0 | ≤ 0 | 8.33 | 12.7 | 6.88 | 0 | ≤ 0 | -1.5 | -18.8 | 0 | -4.77 | 8.33 | 0.667 | ≤ 0 | -0.5 |  | 
CC(NC(C)(C)C)C(=O)c1cccc(Cl)c1 (configuration not stated) [bupropion] (10 µM) | 0 | -21.4 | 0 | 0 | ≤ 0 | 0 | -36.3 | 0.8 | 0 | 12.5 | -6 | -1.43 | 0 | 3.29 | 0 | 34.4 | 4.17 | 12.6 |  | 
CC(NC(C)(C)C)C(=O)c1cccc(Cl)c1 (configuration not stated) [bupropion] (1000 µM) |  |  | 0 | 33.3 | 37.5 | 45.8 | -64.2 | -9.8 | 0 | ≤ 0 | -2.5 | -39.5 | 0 | 13.4 | 50 | 56.1 | 83.3 | 19.6 | 0 | -56.9
CN(C)CCC[C@@]1(c2ccc(F)cc2)OCc2cc(C#N)ccc21 [escitalopram] (31.6 µM) |  |  | 0 | 0 | 8.33 | 0 | 12.5 | 4.85 | 0 | 4.17 | -1.25 | -31.5 | 4.17 | 3.28 | 0 | -4.32 | 37.5 | 0 | 0 | -4.33
